Ends that are not written are not given here.
Tests used:
L-SH3 domain = target: T1, L-SH3 domain (Gallus gallus, UniProt P00523); assay: Competitive enzyme-linked immunosorbent assay (ELISA) for L-SH3 binding; parameters: species or system chicken; conditions: L- and D-amino acid ligands
T1 construct: Residues 81 to 140 of chicken c-SRC were cloned; modified TrpLE leader (Met to Leu, Cys to Ala) (N, cleaved yes); His9 within the C-terminal region of the TrpLE leader (N, cleaved yes); made in house; host or cells: Escherichia coli BL21(DE3) pLysS, plasmid pMMHb-SRC SH3
Method: (§1) The affinity of Pep-DI for the L-SH3 domain was determined by a competitive enzyme-linked immunosorbent assay (ELISA). Single wells of a 96-well plate were coated with 5 μg of the L-SH3 domain (Scott, J. K. and Smith, G. P., Science, 249:386 (1990); Smith, G. P. and Scott, J. K., Methods in Enzymol., 217:228 (1993)). Wells were blocked with BSA, and phages expressing the L-SH3-binding insert […] (SEQ ID NO: 10) were allowed to bind in 10 mM NaHPO4, pH 7.2, 15 mM NaCl, 1 mg/ml of BSA, 0.05% NaN3, and 0.1% Tween 20, in the presence of increasing amounts of competitor peptide. Phage binding was quantified with a rabbit M13 antibody (Stratagene) and alkaline phosphatase-labeled goat antibody to rabbit (Pierce), with a fresh solution of p-nitrophenol phosphate as substrate. Absorbance at 410 nm was determined with a Dynatech micotiter plate reader. […] Relative values for Kd were obtained as described (Minor, D. L., Jr. and Kim, P. S., Nature, 367:660 (1994)). […] A solution of the peptide was titrated into 1 μM SH3 solution in 15 mM NaCl and 10 mM NaHPO4, pH 7.2. Tryptophan fluorescence was induced by excitation at 295 nm (5 nm slit width), and emission was measured at 339 nm (10 nm slit width), with a Hitachi F-4500 fluorescence spectrometer. The dissociation constant was determined by Scatchard analysis.

SH3 domain = target: T2, SH3 domain (Gallus gallus, UniProt P00523); assay: Direct tryptophan fluorescence spectroscopy titration; assay type: binding, chicken; conditions: 1 μM SH3, 15 mM NaCl and 10 mM NaHPO4, pH 7.2; Scatchard analysis
T2 construct: Residues 81 to 140 of chicken c-SRC were cloned; modified TrpLE leader (Met to Leu, Cys to Ala) (N, cleaved yes); His9 within the C-terminal region of the TrpLE leader (N, cleaved yes); made in house; host or cells: E. coli in M9 medium with (15NH4)2SO4, plasmid pMMHb-SRC SH3
Method: as §1

(L)-SH3 = target: T3, (L)-SH3 (Gallus gallus, UniProt P00523); assay: Retention of bacterially expressed (L)-SH3 on peptide affinity column; assay type: binding; conditions: residues 81-140 of chicken c-Src
T3 construct: E. coli BL21(DE3) pLysS, pMMHb TrpLE-His9 fusion, cleaved with CNBr
Method: The L- and D-enantiomers of the chicken c-SRC domain were prepared by bacterial expression and chemical synthesis, respectively. The biotinylated, synthetic, 60-amino acid D-SH3 domain was refolded and purified by affinity chromatography, with a D-amino acid version of a known peptide ligand for the SH3 domain (Yu, H., et al., Cell, 76:933 (1994)).
The all D amino acid SH3 domain, sequence […] S-COOH-terminus (SEQ ID No: 1), residues 81-140 of chicken c-SRC, was synthesized on HMP resin (ABI/Perkin Elmer) with an ABI 431A peptide synthesizer and ABI fastmoc cycles (Fmoc chemistry with HBTU activation and capping with acetic anhydride). Protected D-amino acids were obtained from Bachem California., Bachem Bioscience, Advanced Chemtech, and Novabiochem. For D-Ile and D-Thr, the side chain enantiomers were used, in which the chirality of the side chain is also inverted relative to naturally occurring L-Thr and L-Ile. After completion of the synthesis, the NH2 -terminus of the peptide was modified with NHS-LC-biotin II (Pierce). After cleavage, the peptide was lyophilized, dissolved in 6 M guanidine HCl, pH 6.0, and dialyzed against 100 mM NaHPO4 and 100 mM NaCl, pH 6.0, with the use of dialysis tubing with a molecular cutoff of 3,500 daltons (D) (Spectra/Por). […]

Row | Substance | competition with the L-amino acid ligand (L-SH3 domain) | Kd (SH3 domain) | retention of bacterially expressed (L)-SH3 on peptide column ((L)-SH3)
1 | (D)-RCLSGLRLGLVPCA [Pep-D1] | competition observed for the binding of these two ligands | – | –
2 | YGGRELPPLPRF-NH2 | – | 6 µM | can be retained on the (L)-enantiomer

From patent publication US5780221A, “Identification of enantiomeric ligands” (Whitehead Institute for Biomedical Research, priority 1996, dated 1998)
